Laboratory results from publication PMC8645336, “Benchmarking a highly selective USP30 inhibitor for enhancement of mitophagy and pexophagy” (Life Science Alliance, 2021).

Tests used:
Test in all cases: biochemical
Parameters in all cases: Ubiquigent DUB profiler selectivity panel, remaining enzyme activity as % of control
Conditions in all cases: read-out: % of control remaining
OTUB2 = molecular target: T1, OTUB2 (Homo sapiens, UniProt Q96DC9)
T1 sequence (Q96DC9 1-234): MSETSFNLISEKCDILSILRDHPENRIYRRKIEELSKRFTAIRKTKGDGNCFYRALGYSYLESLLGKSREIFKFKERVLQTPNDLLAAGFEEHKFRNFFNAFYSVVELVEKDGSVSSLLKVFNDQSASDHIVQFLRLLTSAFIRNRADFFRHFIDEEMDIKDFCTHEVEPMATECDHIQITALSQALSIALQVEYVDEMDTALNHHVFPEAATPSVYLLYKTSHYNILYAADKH
In short: (§1)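 In YFP-PRKN-overexpressing hTERT-RPE1 cells, 1 h antimycin A plus oligomycin A (1 μM each) with CMPD-39, then Western blot of TOMM20 ubiquitylation. Target engagement: 2 h compound, then 10 min HA-Ub-PA at 37°C, read as USP30 shift. DUB panel (>40 enzymes) screened at 1-100 μM.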

USP17 = molecular target: T2, USP17 (Homo sapiens, UniProt Q6R6M4)
T2 construct: gene USP17L2
T2 sequence (Q6R6M4 1-530): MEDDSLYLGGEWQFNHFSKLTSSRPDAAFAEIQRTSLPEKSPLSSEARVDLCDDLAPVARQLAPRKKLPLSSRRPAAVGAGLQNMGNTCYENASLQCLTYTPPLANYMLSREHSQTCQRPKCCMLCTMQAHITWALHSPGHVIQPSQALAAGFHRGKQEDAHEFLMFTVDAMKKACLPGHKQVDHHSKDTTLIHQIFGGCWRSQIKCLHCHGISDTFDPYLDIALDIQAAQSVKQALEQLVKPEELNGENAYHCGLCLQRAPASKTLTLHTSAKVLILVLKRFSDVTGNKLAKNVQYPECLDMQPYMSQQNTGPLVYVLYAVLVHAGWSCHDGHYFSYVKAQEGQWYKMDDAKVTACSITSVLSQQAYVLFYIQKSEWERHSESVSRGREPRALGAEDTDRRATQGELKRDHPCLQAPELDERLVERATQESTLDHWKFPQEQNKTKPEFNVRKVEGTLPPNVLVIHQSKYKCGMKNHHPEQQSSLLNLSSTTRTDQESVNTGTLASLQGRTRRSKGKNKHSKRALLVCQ
In short: as §1

USP21 = molecular target: T3, USP21 (Homo sapiens, UniProt Q9UK80)
T3 sequence (Q9UK80 1-565): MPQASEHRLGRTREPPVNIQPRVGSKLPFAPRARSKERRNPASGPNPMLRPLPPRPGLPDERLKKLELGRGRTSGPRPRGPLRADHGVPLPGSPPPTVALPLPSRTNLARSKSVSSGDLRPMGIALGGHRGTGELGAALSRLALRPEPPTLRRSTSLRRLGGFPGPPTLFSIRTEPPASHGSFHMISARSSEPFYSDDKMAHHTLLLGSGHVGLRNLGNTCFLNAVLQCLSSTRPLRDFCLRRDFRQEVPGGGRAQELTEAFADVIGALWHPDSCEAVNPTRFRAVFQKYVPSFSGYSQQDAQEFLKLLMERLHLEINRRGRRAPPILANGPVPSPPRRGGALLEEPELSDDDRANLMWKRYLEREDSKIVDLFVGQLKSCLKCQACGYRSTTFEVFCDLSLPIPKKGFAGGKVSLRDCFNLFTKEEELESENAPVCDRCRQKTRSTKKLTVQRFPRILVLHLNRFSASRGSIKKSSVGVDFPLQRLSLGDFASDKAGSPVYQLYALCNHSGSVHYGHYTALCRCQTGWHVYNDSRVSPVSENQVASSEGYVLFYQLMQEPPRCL
In short: as §1

USP30 = molecular target: T4, USP30 (Homo sapiens, UniProt Q70CQ3)
T4 sequence (Q70CQ3 1-517): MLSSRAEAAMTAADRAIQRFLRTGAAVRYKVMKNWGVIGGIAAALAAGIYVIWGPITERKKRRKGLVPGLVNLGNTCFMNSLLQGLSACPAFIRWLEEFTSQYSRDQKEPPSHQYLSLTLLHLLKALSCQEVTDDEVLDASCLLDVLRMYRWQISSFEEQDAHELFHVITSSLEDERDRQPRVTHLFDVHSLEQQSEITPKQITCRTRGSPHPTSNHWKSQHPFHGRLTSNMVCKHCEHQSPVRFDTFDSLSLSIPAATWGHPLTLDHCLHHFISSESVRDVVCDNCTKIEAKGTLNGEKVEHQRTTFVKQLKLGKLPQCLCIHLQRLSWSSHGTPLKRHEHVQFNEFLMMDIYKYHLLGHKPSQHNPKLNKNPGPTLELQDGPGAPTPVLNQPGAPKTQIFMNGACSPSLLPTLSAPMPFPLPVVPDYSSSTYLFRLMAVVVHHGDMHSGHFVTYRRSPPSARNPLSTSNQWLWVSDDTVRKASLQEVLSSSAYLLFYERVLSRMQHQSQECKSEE
In short: as §1

remaining activity at 1 µM (OTUB2): 103% | remaining activity at 10 µM (OTUB2): 97.5% | remaining activity at 100 µM (OTUB2): 97.3% | remaining activity at 1 µM (USP17): 110% | remaining activity at 10 µM (USP17): 119% | remaining activity at 100 µM (USP17): 102% | remaining activity at 1 µM (USP21): 102% | remaining activity at 10 µM (USP21): 94% | remaining activity at 100 µM (USP21): 90.9% | remaining activity at 1 µM (USP30): 0.756% | remaining activity at 10 µM (USP30): 0.5% | remaining activity at 100 µM (USP30): 3.27%
SMILES: CC(C)(C)NS(=O)(=O)c1ccc(NC(=O)[C@H](Cc2ccccc2)NC(=O)c2ccc(F)cc2)cc1 [compound 39, CMPD-39]
